We go through one molecule from patent US8377913B2, “Vitamin D receptor activators and methods of making” (AbbVie Inc., priority 2007, dated 2013).

SMILES strings stand for the structures.

In data set [1] the test system is Renin mRNA in As4.1 cells. The experiment in a line: Renin mRNA in As4.1 cells transfected with pcDNA-hVDR (real-time RT-PCR). The format is cell-based. As for the experimental part: As4.1 cells (ATCC, Manassas, Va.) were cultured in Dulbecco's Modified Eagle Medium DMEM (commercially available from Invitrogen, Carlsbad, Calif.) with 10% fetal bovine serum at 37° C. in a humidified 5% CO2-95% air atmosphere. C3;ells were transfected with the pcDNA-hVDR plasmid (provided by Yan Chun Li, University of Chicago) by LIPOFECTAMINE™ 2000 (Invitrogen, Carlsbad, Calif.). siRNA was transfected with the pcDNA-hVDR plasmid by LIPOFECTAMINE™ 2000 according to the manufacturer's protocol. Twenty-four hours after transfection, cells were treated with test agents.
Real-time reverse transcription-PCR was performed with a MyiQ Real-time PCR Detection System (commercially available from BioRad, Hercules, Calif.). […] TaqMan™ probes that were 5′ labeled with the reporter 6-carboxyfluorescein (FAM) and 3′ labeled with the quencher tetramethylrhodamine (TAMRA) were used and the primer and probe sets were obtained from Applied Biosystems (Foster City, Calif.). Temperature conditions consisted of a step of 5 minutes at 95° C., followed by 45 cycles of 60° C. for 1 minute and 95° C. for 15 seconds. Data was collected during each extension phase of the PCR reaction and analyzed with the accompanying software package (BioRad, Hercules, Calif.). Threshold cycles were determined for each gene.

In data set [2] the test system is Human promyelocytic leukemia (HL60) cells. The experiment in a line: HL-60 Differentiation. The format is cell-based. Conditions: HL-60, 96 h, four days incubation, NBT, absorbance 570 nm. The method, then: Human promyelocytic leukemia (HL60) cells were obtained from the American Type Culture Collection (ATCC Cat. # CCL-240, Manassas, Va.). Cells were maintained in RPMI 1640 medium (commercially available from Invitrogen, Carlsbad, Calif.) containing 10% fetal bovine serum (commercially available from Invitrogen, Carlsbad, Calif.) at 37° C. with 5% CO2. Cells were passaged weekly and were not allowed to become >90% confluent. For the assay, cells were plated at 5×10^5 cells per well in 200 uL media. Test compounds were diluted in media in concentrations between 10^−6-10^−10 M and then added to the appropriate wells. Cells were then incubated for four days at 37° C. in 5% CO2 atmosphere. After incubation, media was aspirated from each well and 75 uL of NBT solution (nitroblue tetrazolinium: 200 ng/mL PMA (phorbol 12-myrystate 13-acetate) and 2 mg/ml NBT (nitroblue tetrazolium) in distilled H2O) was added to each well followed by further incubation for 2 hours at 37° C. Following incubation, 150 uL lysis buffer (225 mL dimethylformamide, 67.5 g SDS). PMA stock solution (2 mg/ml in ethanol) was added to each well and the plate was allowed to sit at room temperature for 4 hours. HL-60 cell differentiation was assayed, Effect of each compound on cell growth was examined as a function of time; absorbance in each well was measured at 570 nm.

The test system of data set [3] is 5/6 NX uremic rats. The experiment in a line: Study 2: left ventricular hypertrophy (LVH) in 5/6 NX uremic rats. The data set is classed as in vivo, rat. Conditions: 1, 10 and 100 μg/kg, 3×/wk for 6 wks. As for the experimental part: Study 2: To determine if treatment with Example 1 (1, 10 & 100 μg/kg) reduces left ventricular hypertrophy (LVH) in 5/6 NX uremic rats.
Methods: Previous studies have shown that the 5/6 NX rat is hypertensive and presents with left ventricular hypertrophy. Therefore, 5/6 NX rats were received from Charles River at 2 weeks uremia and fed TD04151 (0.6% Ca and 0.9 % P) 4 weeks prior to study. 5/6 NX rats were treated with Example 1 (1, 10 & 100 μg/kg) or vehicle (95% PG/5% EtOH) 3×/week for six weeks. On Days 0, 13 and 41 blood was drawn (24 hours post-dose). At the end of the six week treatment period, rats were anesthetized with isoflurane and echocardiography was performed. Left ventricular mass was determined according to the American Society of Echocardiography recommendations using the cube method. After euthanasia, direct measurements of left ventricular weight were obtained. Note: Vehicle treated SHAM and 5/6 NX rats (3×/week for six weeks) from previous studies were included in this study for comparison purposes. All values are mean±SEM. Data was analyzed using ANOVA and where noted t-test. * Indicates p<0.05 compared to SHAM.

In data set [4] the test system is Thrombospondin mRNA in human coronary artery smooth muscle cells (CASMC). Description: Thrombospondin mRNA in CASMC. The format is cell-based. Conditions: Homo sapiens. As for the experimental part:
(§1) Primary culture of human coronary artery smooth muscle cells (CASMC) (commercially available from Cambrex, Walkersville, Md.) were grown in smooth muscle growth medium SmGM-2 (commercially available from Lonza Bioscience) containing 5.5 mM glucose, 5% FBS, 50 μg/ml gentamicin, 50 ng/ml amphotericin-B, 5 μg/ml insulin, 2 ng/ml human recombinant fibroblast growth factor (hFGF), and 0.5 ng/ml human recombinant epidermal growth factor (hEGF) at 37° C. in a humidified 5% CO2-95% air atmosphere. Cells were grown to >80% confluence and used within five passages.
(§2) Real-time reverse transcription-PCR was performed with a MyiQ Real-Time PCR Detection System (BioRad, Hercules, Calif.). Each sample has a final volume of 25 μl containing 100 ng of cDNA, […] each of the forward and reverse PCR primers and […] of the TaqMan™ probe for the gene of interest (Applied Biosystems, Foster City, Calif.). Temperature conditions consisted of a step of 5 minutes at 95° C., followed by 40 cycles of 60° C. for 1 minute and 95° C. for 15 seconds. Data was collected during each extension phase of the PCR reaction and analyzed with the software package (BioRad, Hercules, Calif.). Threshold cycles were determined for each gene. […]

In data set [5] the test system is PAI-1 mRNA in human coronary artery smooth muscle cells (CASMC). Description: PAI-1 mRNA in CASMC. The format is cell-based. Particulars: Homo sapiens. As for the experimental part: as §1, §2
For data set [6], the target named is T1, recombinant full-length human Vitamin D nuclear receptor (Homo sapiens, UniProt P11473).
T1 sequence (P11473 1-427): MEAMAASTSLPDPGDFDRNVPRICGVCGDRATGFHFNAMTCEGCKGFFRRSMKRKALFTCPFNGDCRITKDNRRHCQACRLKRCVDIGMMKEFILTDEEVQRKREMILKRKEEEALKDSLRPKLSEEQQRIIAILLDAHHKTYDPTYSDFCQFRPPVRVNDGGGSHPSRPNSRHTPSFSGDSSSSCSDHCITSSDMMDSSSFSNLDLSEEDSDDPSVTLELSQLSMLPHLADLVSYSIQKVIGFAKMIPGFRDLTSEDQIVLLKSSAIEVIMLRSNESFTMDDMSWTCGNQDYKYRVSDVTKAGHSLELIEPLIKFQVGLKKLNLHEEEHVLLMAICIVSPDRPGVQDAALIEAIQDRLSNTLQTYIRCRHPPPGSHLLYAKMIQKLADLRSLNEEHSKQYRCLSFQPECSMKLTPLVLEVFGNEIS
Description: biochemical.
Description: In vitro binding of selected compounds according to the invention to VDR was assessed using the following procedure. […] Each test compound was then serially diluted in binding buffer to concentrations appropriate for the assay, as one skilled in the art can determine.
Final assay volume was 100 uL. The filled plate was incubated overnight at 4° C. with gentle shaking. After 18 hours of incubation, 20 uL of wheat germ agglutinin-coated yttrium silicate scintillation proximity assay (SPA) beads (commercially available from Amersham Biosciences, Piscataway, N.J.; Part # RPNQ0270) resuspended in binding buffer was added to each well (200 ug/well) and the plate was incubated at room temperature for 2 hours with gentle shaking.

Data set [7] relates to Thrombomodulin mRNA in human coronary artery smooth muscle cells (CASMC). The experiment in a line: Thrombomodulin mRNA in CASMC. The data set is classed as cell-based. Particulars: Homo sapiens. As for the experimental part: as §1, §2

Regarding `C=C1[C@H](O)CC(=C/C=C2\CCC[C@]3(C)[C@@H]([C@H](C)COC(=O)C(C)(C)C)CC[C@@H]23)C[C@H]1O` [Example 1, (2S)-2-[(1R,3R,7E, 17β)-1,3-dihydroxy-2-methylene-9,10-secoestra-5,7-dien-17-yl]propyl pivalate], the IC50 (commonly the concentration that gives 50% inhibition) turned out to be 0.3 nM in data set [1], 0.004 nM in data set [4], 0.01 nM in data set [5] and 496 nM in data set [6]. Further, the results for the EC50 in data set [2] and in data set [7] were 1.9 nM and 2.2 nM, respectively. Further, in data set [3], the “exacerbation of LVH compared to controls” value was “no exacerbation”.
